Test results as given in patent US11878965B2, “Inhibitors of peptidylarginine deiminases” (Gilead Sciences, Inc., priority 2020, dated 2024).

Molecular target: human PAD4 (Homo sapiens (Human), UniProt Q9UM07)
Assay: In Vitro PAD4 BAEE Biochemical Assay
Settings: geometric mean of multiple experiments
In short: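 Deimination of BAEE substrate (3 mM) measured as ammonia via o-phthalaldehyde–DTT isoindole fluorescence, 405/535 nm. Tag-free bacterially expressed human PAD4 at 5 nM with 2 mM calcium chloride, pH 7.6 MOPS buffer, 30 min compound preincubation then 2 h reaction, both at 25 °C.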

[1] = human PAD4, BAEE substrate, 5 nM PAD4, 2 mM calcium chloride, 3 mM BAEE
[2] = recombinant PAD4 5 nM, 2 mM calcium chloride, 3 mM BAEE substrate

Chain of human PAD4 (Q9UM07 2-663): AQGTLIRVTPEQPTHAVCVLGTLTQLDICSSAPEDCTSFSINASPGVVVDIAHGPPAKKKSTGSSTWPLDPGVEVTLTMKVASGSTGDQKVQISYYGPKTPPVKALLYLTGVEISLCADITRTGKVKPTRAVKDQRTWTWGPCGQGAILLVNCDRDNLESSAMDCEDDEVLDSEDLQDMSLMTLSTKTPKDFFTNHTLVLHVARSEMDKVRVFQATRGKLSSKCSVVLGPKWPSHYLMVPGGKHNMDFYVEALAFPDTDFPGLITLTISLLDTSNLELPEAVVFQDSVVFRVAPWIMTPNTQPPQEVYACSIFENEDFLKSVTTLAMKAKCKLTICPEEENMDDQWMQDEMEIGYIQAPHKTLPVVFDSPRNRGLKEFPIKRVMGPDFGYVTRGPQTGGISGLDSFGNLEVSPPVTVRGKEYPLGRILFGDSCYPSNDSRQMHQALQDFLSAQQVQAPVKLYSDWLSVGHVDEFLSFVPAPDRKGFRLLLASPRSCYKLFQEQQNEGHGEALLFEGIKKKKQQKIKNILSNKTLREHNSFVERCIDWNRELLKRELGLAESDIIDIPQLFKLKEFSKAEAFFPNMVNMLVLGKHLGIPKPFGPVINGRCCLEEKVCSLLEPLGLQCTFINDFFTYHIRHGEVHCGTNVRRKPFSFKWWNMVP

| IC50 [1] | IC50 [2] | Compound |
| --- | --- | --- |
| 0.083 µM |  | COc1cc(C(=O)N2CCC[C@@H](N)C2)cc2nc(-c3cc4ccc(N(C(F)F)S(C)(=O)=O)nc4n3CC3CC3)n(C)c12 [Example 18, (R)-N-(2-(5-(3-aminopiperidine-1-carbonyl)-7-methoxy-1-methyl-1H-benzo[d]imidazol-2-yl)-1-(cyclopropylmethyl)-1H-pyrrolo[2,3-b]pyridin-6-yl)-N-(difluoromethyl) methanesulfonamide] |
| 0.0939 µM |  | COc1cc(C(=O)N2CCC[C@@H](N)C2)cc2nc(-c3cc4ccc([C@@H](C)NC(=O)C56CC(F)(C5)C6)nc4n3CC3CC3)n(C)c12 [Example 122, N-((R)-1-(2-(5-((R)-3-aminopiperidine-1-carbonyl)-7-methoxy-1-methyl-1H-benzo[d]imidazol-2-yl)-1-(cyclopropylmethyl)-1H-pyrrolo[2,3-b]pyridin-6-yl)ethyl)-3-fluorobicyclo[1.1.1]pentane-1-carboxamide] |
| 0.0572 µM |  | COc1cc(C(=O)N2C[C@H](N)[C@@H]3CC[C@H]2C3)cc2nc(-c3cc4ccc([C@@H](C)NC(=O)C56CC(F)(C5)C6)nc4n3CC3CC3)n(C)c12 [Example 223, N-[(1R)-1-[2-[5-[(1S,4R,5R)-4-amino-2-azabicyclo[3.2.1]octane-2-carbonyl]-7-methoxy-1-methyl-benzimidazol-2-yl]-1-(cyclopropylmethyl)pyrrolo[2,3-b]pyridin-6-yl]ethyl]-3-fluorobicyclo[1.1.1]pentane-1-carboxamide] |
| 0.379 µM |  | CCN(C(C)=O)c1ccc2cc(-c3nc4cc(C(=O)N5CCC[C@@H](N)C5)cc(OC)c4n3C)n(CC3CC3)c2n1 [Example 115, (R)-N-(2-(5-(3-aminopiperidine-1-carbonyl)-7-methoxy-1-methyl-1H-benzo[d]imidazol-2-yl)-1-(cyclopropylmethyl)-1H-pyrrolo [2,3-b]pyridin-6-yl)-N-ethylacetamide] |
| 0.0549 µM |  | COc1cc(C(=O)N2C[C@H](N)[C@@H]3CC[C@H]2C3)cc2nc(-c3cc4ccc([C@@H](C)NC(=O)[C@H]5CC5(F)F)nc4n3CC3CC3)n(C)c12 [Example 220, (R)-N-((R)-1-(2-(5-((1S,4R,5R)-4-amino-2-azabicyclo[3.2.1]octane-2-carbonyl)-7-methoxy-1-methyl-1H-benzo[d]imidazol-2-yl)-1-(cyclopropylmethyl)-1H-pyrrolo[2,3-b]pyridin-6-yl)ethyl)-2,2-difluorocyclopropane-1-carboxamide] |
| 5.76 µM |  | COC(=O)Nc1ccc2cc(-c3nc4cc(C(=O)N5CCC[C@@H](N)C5)cc(OC)c4n3C)n(CC3CC3)c2n1 [Example 108, (R)-methyl (2-(5-(3-aminopiperidine-1-carbonyl)-7-methoxy-1-methyl-1H-benzo[d]imidazol-2-yl)-1-(cyclopropylmethyl)-1H-pyrrolo[2,3-b]pyridin-6-yl)carbamate] |
|  | 0.382 µM | COc1cc(C(=O)N2C[C@H](N)[C@@H]3CC[C@H]2C3)cc2nc(-c3cc4ccc([C@@H](C)NC(=O)c5cccc(C(F)F)n5)nc4n3CC3CC3)n(C)c12 [Example 307, N-((R)-1-(2-(5-((1S,4R,5R)-4-amino-2-azabicyclo[3.2.1]octane-2-carbonyl)-7-methoxy-1-methyl-1H-benzo[d]imidazol-2-yl)-1-(cyclopropylmethyl)-1H-pyrrolo[2,3-b]pyridin-6-yl)ethyl)-6-(difluoromethyl) picolinamide] |
| 0.874 µM |  | COc1cc(C(=O)N2C[C@H](N)CC[C@@H]2C)cc2nc(-c3cc4ccc(C(=O)N(C)C)nc4n3CC3CC3)n(C)c12 [Example 250, 2-(5-((2S,5R)-5-amino-2-methylpiperidine-1-carbonyl)-7-methoxy-1-methyl-1H-benzo[d]imidazol-2-yl)-1-(cyclopropylmethyl)-N,N-dimethyl-1H-pyrrolo[2,3-b]pyridine-6-carboxamide] |
|  | 0.0727 µM | COc1cc(C(=O)N2C[C@H](N)[C@@H]3CC[C@H]2C3)cc2nc(-c3cc4ccc([C@@H](C)NC(=O)c5cccnc5C(F)F)nc4n3CC3CC3)n(C)c12 [Example 305, N-((R)-1-(2-(5-((1S,4R,5R)-4-amino-2-azabicyclo[3.2.1]octane-2-carbonyl)-7-methoxy-1-methyl-1H-benzo[d]imidazol-2-yl)-1-(cyclopropylmethyl)-1H-pyrrolo[2,3-b]pyridin-6-yl)ethyl)-2-(difluoromethyl)nicotinamide] |
|  | 0.0811 µM | COc1cc(C(=O)N2C[C@H](N)[C@@H]3CC[C@H]2C3)cc2nc(-c3cc4ccc([C@@H](C)NC(=O)C5(C(F)F)CC5)nc4n3CC3CC3)n(C)c12 [Example 324, N-((R)-1-(2-(5-((1S,4R,5R)-4-amino-2-azabicyclo[3.2.1]octane-2-carbonyl)-7-methoxy-1-methyl-1H-benzo[d]imidazol-2-yl)-1-(cyclopropylmethyl)-1H-pyrrolo[2,3-b]pyridin-6-yl)ethyl)-1-(difluoromethyl)cyclopropane-1-carboxamide] |

The remaining lines, values behind:

| Compound | IC50 [1] | IC50 [2] |
| --- | --- | --- |
| [2H][C@@]1(N)CCCN(C(=O)c2cc(OC)c3c(c2)nc(-c2cc4ccc(N(C(F)F)S(C)(=O)=O)nc4n2CC2CC2)n3C)C1 [Example 45, (R)-N-(2-(5-(3-aminopiperidine-1-carbonyl-3-d)-7-methoxy-1-methyl-1H-benzo[d]imidazol-2-yl)-1-(cyclopropylmethyl)-1H-pyrrolo[2,3-b]pyridin-6-yl)-N-(difluoromethyl) methanesulfonamide] | 0.11 µM |  |
| COc1cc(C(=O)N2[C@H]3CC[C@@H]2[C@H](N)C3)cc2nc(-c3cc4ccc([C@@H](C)NC(=O)C5(OC)CCC5)cc4n3CC3CC3)n(C)c12 [Example 141, N-((R)-1-(2-(5-((1R,2R,4S)-2-amino-7-azabicyclo[2.2.1]heptane-7-carbonyl)-7-methoxy-1-methyl-1H-benzo[d]imidazol-2-yl)-1-(cyclopropylmethyl)-1H-indol-6-yl)ethyl)-1-methoxycyclobutane-1-carboxamide] | 0.0633 µM |  |
| COc1cc(C(=O)N2CCC[C@@H](N)C2)cc2nc(-c3cc4ccc(N(C5CC5)S(=O)(=O)C5CC5)nc4n3CC3CC3)n(C)c12 [Example 26, (R)-N-(2-(5-(3-aminopiperidine-1-carbonyl)-7-methoxy-1-methyl-1H-benzo[d]imidazol-2-yl)-1-(cyclopropylmethyl)-1H-pyrrolo [2,3-b]pyridin-6-yl)-N-cyclopropylcyclo-propanesulfonamide] | 0.106 µM |  |
| COc1cc(C(=O)N2[C@H]3CC[C@@H]2[C@H](N)C3)cc2nc(-c3cc4ccc([C@@H](C)NC(=O)c5cnn(C(F)F)c5)cc4n3CC3CC3)n(C)c12 [Example 139, N-((R)-1-(2-(5-((1R,2R,4S)-2-amino-7-azabicyclo[2.2.1]heptane-7-carbonyl)-7-methoxy-1-methyl-1H-benzo[d]imidazol-2-yl)-1-(cyclopropylmethyl)-1H-indol-6-yl)ethyl)-1-(difluoromethyl)-1H-pyrazole-4-carboxamide] | 0.0289 µM |  |
| 2-(1-(cyclopropylmethyl)- 6-((N-(difluoromethyl) methyl)sulfonamido)- 1H-pyrrolo[2,3-b]pyridin-2- yl)-6-fluoro-N-((3S,4S)- 4-fluoropiperidin- 3-yl)-1-methyl-1H- benzo[d]imidazole-5- carboxamide [Example 93] | 0.146 µM |  |
| COc1cc(C(=O)N2[C@H]3CC[C@@H]2[C@H](N)C3)cc2nc(-c3cc4ccc([C@@H](C)NC(=O)C(C)(C)OC)cc4n3CC3CC3)n(C)c12 [Example 140, N-((R)-1-(2-(5-((1R,2R,4S)-2-amino-7-azabicyclo[2.2.1]heptane-7-carbonyl)-7-methoxy-1-methyl-1H-benzo[d]imidazol-2-yl)-1-(cyclopropylmethyl)-1H-indol-6-yl)ethyl)-2-methoxy-2-methylpropanamide] | 0.0261 µM |  |
| COc1cc(C(=O)N2C[C@H](N)CC[C@@H]2C)cc2nc(-c3cc4ccc(-n5c(C)cccc5=O)nc4n3CC3CC3)n(C)c12 [Example 282, 1-(2-(5-((2S,5R)-5-amino-2-methylpiperidine-1-carbonyl)-7-methoxy-1-methyl-1H-benzo[d]imidazol-2-yl)-1-(cyclopropylmethyl)-1H-pyrrolo[2,3-b]pyridin-6-yl)-6-methylpyridin-2(1H)-one] | 0.146 µM |  |
| (S)-2-(1-(cyclopropylmethyl)-6- ((N-(difluoromethyl) methyl)sulfonamido)-1H- pyrrolo[2,3-b]pyridin-2-yl)- N-(4,4-difluoropiperidin- 3-yl)-6-fluoro- 1-methyl-1H-benzo[d] imidazole-5-carboxamide [Example 92] | 0.617 µM |  |
| COc1cc(C(=O)N2CCC[C@@H](N)[C@H]2C)cc2nc(-c3cc4ccc(N(C)S(C)(=O)=O)nc4n3C3CC3)n(CC3CC3)c12 [Example 49, N-(2-(5-((2R,3R)-3-amino-2-methylpiperidine-1-carbonyl)-1-(cyclopropylmethyl)-7-methoxy-1H-benzo[d]imidazol-2-yl)-1-cyclopropyl-1H-pyrrolo[2,3-b]pyridin-6-yl)-N-methylmethanesulfonamide] | 0.487 µM |  |
| CN(c1ccc2cc(-c3nc4cc(C(=O)N5[C@H]6CC[C@@H]5[C@H](N)C6)cc5c4n3CCO5)n(CC3CC3)c2n1)S(C)(=O)=O [Example 90, N-(2-(7-((1R,2R,4S)-2-amino-7-azabicyclo[2.2.1]heptane-7-carbonyl)-3,4-dihydro-5-oxa-1,2a-diazaacenaphthylen-2-yl)-1-(cyclopropylmethyl)-1H-pyrrolo [2,3-b]pyridin-6-yl)-N-methylmethanesulfonamide] | 0.214 µM |  |
| COc1cc(C(=O)N2[C@H]3CC[C@@H]2[C@H](N)C3)cc2nc(-c3cc4ccc([C@H]5CCCN5C(=O)N5CCCC5)nc4n3CC3CC3)n(C)c12 [Example 248, ((R)-2-(2-(5-((1R,2R,4S)-2-amino-7-azabicyclo[2.2.1]heptane-7-carbonyl)-7-methoxy-1-methyl-1H-benzo[d]imidazol-2-yl)-1-(cyclopropylmethyl)-1H-pyrrolo[2,3-b]pyridin-6-yl)pyrrolidin-1-yl)(pyrrolidin-1-yl)methanone] | 0.0405 µM |  |
